According to US11649220B2 (DEMOTECH.INC., priority 2018, dated 2023):

Tests used:
[1] = In vitro free radical inhibition test (DPPH method); conditions: 8 μL of 20 mmol/L compound in 1 mL DPPH 0.059 mg/mL ethanol, 60 min dark, 517 nm; for inhibition rate %: DPPH; for Relative inhibition ability on free radicals: inhibition rate of AGI1067 on DPPH defined as 100
From the text: 1. In Vitro Free Radical Inhibition Test (DPPH Method)
The single electron of DPPH radical has a strong absorption at […], and its alcohol solution is purple. In the presence of a free radical scavenger, the absorption of DPPH radical is weakened or disappeared for the reason that the free radical scavenger is paired with the single electron of DPPH radical, and the degree of discoloration is quantitatively related to the number of electrons DPPH radical receives. Therefore, a spectrophotometer can be used to quickly and quantitatively analyze the free radical scavenging rate of the compound.
1) 1 mL solution of DPPH in absolute ethanol (concentration: 0.059 mg/mL) was taken; 2) 8 μL of the compound to be tested (20 mmol/L) were added; 3) after mixing well, the resultant was kept in dark at room temperature for 60 minutes, 4) the absorbance of the sample at 517 nm was measured.

[2] = system: Malondialdehyde (MDA) in serum; test: In vivo anti-lipid oxidation experiment (serum MDA, TBA method); set-up: inhibition rate %: concentration or dose not given beside the values; conditions: MAD lipid peroxidation in vivo; for inhibition rate %: relative to solvent DMSO and Chow averages; for avarage value of OD: serum, TBA method, 532 nm
From the text: Experimental principle: Malondialdehyde (MDA) in liposome degradation products could condense with thiobarbituric acid (TBA) to form a red product which has a maximum absorption peak at 532 nm. The spectrophotometer was used to measure the relative absorption value to calculate the antioxidant value.
Reagents: Malondialdehyde (MDA) test kit (article number: A003-1, […], Nanjing Jiancheng), glacial acetic acid of analytically pure grade.
Reagent preparations: 1) Reagent I: Reagent 1 in the kit was taken out from the refrigerator and subjected to natural warming until a transparent liquid is obtained; 2) Reagent II: 170 mL of double-distilled water was added to each bottle and mixed; 3) Reagent III: A dry powder in the kit was dissolved in 60 mL of double-distilled water at 90 to 100° C. After the dry powder was dissolved totally, 30 mL of glacial acetic acid was added and kept in dark place; 4) Standard: 10 nmol/mL tetraethoxypropane.
Experimental procedures: 1) Blank tube: To 2 mL centrifuge tube were added anhydrous ethanol (70 μl), Reagent I (70 μl), Reagent II (0.8 mL) and Reagent III (0.8 mL) in sequence; 2) Standard tube: To 2 mL centrifuge tube were added standard (70 μl), Reagent I (70 μl), Reagent 11 (0.8 mL) and Reagent III (0.8 mL) in sequence; 3) Measuring tube: To 2 mL centrifuge tube were added the serum to be tested and physiological saline (the total volume of serum and physiological saline is 70 μl), Reagent I (70 μl), Reagent II (0.8 mL) and Reagent III (0.8 mL) in sequence; 4) Control tubes: all samples are set up with corresponding control tubes. To a 2 mL centrifuge tube were added the serum to be tested and physiological saline (the total volume of serum and physiological saline is 70 μl), Reagent I (70 μl), Reagent II (0.8 mL) and 50% glacial acetic acid (0.8 mL) in sequence.
After the above reagents were added, the mixture was mixed homogenously. Then the mixture was left in the water bath at 95° C. for 60 minutes. The sample was centrifuged at 4000 rpm for 10 minutes. The supernatant was taken for the measurement of the OD value.
Experimental data processing: the MDA content in serum was calculated as follows: MDA=(OD valuemeasured−OD valuecontrol)/OD valuestandard*concentration of the standard Inhibition rate %=100−(ODsample-average value−average value of Chow)/(average value of the solvent DMSO−average value of Chow)*100

| SMILES | inhibition rate % [1] | Relative inhibition ability on free radicals [1] | inhibition rate % [2] | avarage value of OD [2] |
| --- | --- | --- | --- | --- |
| CC(N)C(=O)OCCC(C)(C)c1cc(SC(C)(C)Sc2cc(C(C)(C)C)c(O)c(C(C)(C)C)c2)cc(C(C)(C)C)c1O (stereo not shown) [Compound 20, 3-(3-(tert-butyl)-5-((2-((3,5-di-tert-butyl-4-hydroxyphenyl)thio)propan-2-yl)thio)-2-hydroxyphenyl)-3-methylbutyl alaninate] | 26.3% | 38.9 | 30.7% | 8.10 |
| COC(=O)CN(CCC(C)(C)c1cc(SC(C)(C)Sc2cc(C(C)(C)C)c(O)c(C(C)(C)C)c2)cc(C(C)(C)C)c1O)CC(=O)OC [Compound 22, dimethyl 2,2′-((3-(3-(tert-butyl)-5-((2-((3,5-di-tert-butyl-4-hydroxyphenyl)thio)propan-2-yl)thio)-2-hydroxyphenyl)-3-methylbutyl)azanediyl)diacetate] | 42.6% | 97.6 | 36.2% | 7.89 |
| CC(C)(Sc1cc(C(C)(C)C)c(O)c(C(C)(C)C)c1)Sc1cc(C(C)(C)C)c(O)c(C(C)(C)CCn2cncn2)c1 [Compound 24, 2,6-di-tert-butyl-4-((2-((3-(tert-butyl)-4-hydroxy-5-(2-methyl-4-(1H-1,2,4-triazol-1-yl)butan-2-yl)phenyl)thio)propan-2-yl)thio)phenol] | 19.2% | 34.8 | 53.3% | 7.23 |
| CC(C)(Sc1cc(C(C)(C)C)c(O)c(C(C)(C)C)c1)Sc1cc(C(C)(C)C)c(O)c(C(C)(C)CCNS(=O)(=O)C2CC2)c1 [Compound 25, N-(3-(3-(tert-butyl)-5-((2-((3,5-di-tert-butyl-4-hydroxyphenyl)thio)propan-2-yl)thio)-2-hydroxyphenyl)-3-methylbutyl)cyclopropanesulfonamide] | 28.6% | 29.3 | 48.1% | 7.43 |
| CC(C)(Sc1cc(C(C)(C)C)c(O)c(C(C)(C)C)c1)Sc1cc(C(C)(C)C)c(O)c(C(C)(C)CCOC(=O)CCC(=O)NCCS(=O)(=O)O)c1 [Compound 27, 2-(4-(3-(3-(tert-butyl)-5-((2-((3,5-di-tert-butyl-4-hydroxyphenyl)thio)propan-2-yl)thio)-2-hydroxyphenyl)-3-methylbutoxy)-4-oxobutanamido)ethane-1-sulfonic acid] | 18.1% | 41.5 | 30.2% | 8.12 |
| CC(C)(C)C1=CC(=C2C=C(C(C)(C)C)C(=O)C(C(C)(C)C)=C2)C=C(C(C)(C)C)C1=O [Compound 29, 3,3′,5,5′-tetra-tert-butyl-[1,1′-bi(cyclohexylidene)]-2,2′,5,5′-tetraene-4,4′-dione, reference compound] | 8.8% | 20.1 | 7.9% | 8.98 |
| CC(C)(Sc1cc(C(C)(C)C)c(O)c(C(C)(C)C)c1)Sc1cc(C(C)(C)C)c(OC(=O)CCC(=O)O)c(C(C)(C)C)c1 [Compound 31, 4-(2,6-di-tert-butyl-4-((2-((3,5-di-tert-butyl-4-hydroxyphenyl)thio)propan-2-yl)thio)phenoxy)-4-oxobutanoic acid, reference compound] | 43.6% | 100.0 | 49.1% | 7.39 |
